Source: patent US20120129842A1, “BISTHIAZOLE INHIBITORS OF PRO-MATRIX METALLOPROTEINASE ACTIVATION” (priority 2010, published 2012)
Structures can show the parent of a compound that is named as a salt.

Tests used:
[1] = molecular target: T1, full-length proMMP9(1-707) (SEQ ID NO:1) (Homo sapiens, UniProt P14780, R574P); assay: proMMP9/MMP3 P126 Activation Assay; assay type: biochemical; details: 20 nM proMMP9, 20 nM MMP3, 80 min 37° C.
T1 construct: made in house; host or cells: HEK293 (proMMP9, secreted); E. coli (MMP3)
Procedure: The reaction volume was 50 μL. […] Reactivity of residual MMP3 towards P-126 substrate was minimal under these conditions.

[2] = molecular target: proMMP13(1-268) (SEQ ID NO:7) (Homo sapiens, UniProt P45452); assay: ThermoFluor binding assay with proMMP13(1-268); set-up: 6xHis (C); made in house; details: pH 7.0
Method in brief: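 Thermal shift binding with 3.5 μM protein and 25 μM 1,8-ANS in 50 mM HEPES pH 7.0, 100 mM NaCl, 0.001% Tween-20, 2.5 mM MgCl2, 300 μM CaCl2. Samples were heated 40 to 90 °C at 1 °C/min, fluorescence read at 500 nm. Tm shifts across an 11-point DMSO dilution series were fitted with DSC-derived thermodynamic parameters.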

[3] = molecular target: T2, proMMP9(20-445;ΔFnII) (SEQ ID NO:6) (Homo sapiens, UniProt P14780, DEL216-390); assay: ThermoFluor binding assay with proMMP9(20-445;ΔFnII); details: pH 7.0
T2 construct: start methionine (N); made in house; host or cells: E. coli BL21(DE3) RIL
T2 sequence (P14780 with tags, fused parts or gaps DEL216-390): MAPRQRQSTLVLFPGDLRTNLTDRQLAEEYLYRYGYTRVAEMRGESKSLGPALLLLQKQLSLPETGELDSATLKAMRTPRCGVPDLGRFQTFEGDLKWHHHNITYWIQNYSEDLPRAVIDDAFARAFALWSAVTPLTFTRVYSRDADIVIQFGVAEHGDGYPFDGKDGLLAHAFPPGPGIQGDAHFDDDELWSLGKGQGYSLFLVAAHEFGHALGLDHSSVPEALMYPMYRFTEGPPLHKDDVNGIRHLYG
Method in brief: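 proMMP9(20-445;ΔFnII) at 2.8 μM with 50 μM 1,8-ANS in 50 mM HEPES pH 7.0, 100 mM NaCl, 0.001% Tween-20, 2.5 mM MgCl2, 300 μM CaCl2; compounds serially diluted in DMSO. Heated 40–90 °C at 1 °C/min, fluorescence read at 500±25 nm. Tm fit by standard equations; binding fit using DSC/TF-derived thermodynamic parameters.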

[4] = molecular target: T3, proMMP9(67-444;ΔFnII) (SEQ ID NO:5) (Homo sapiens, UniProt P14780, DEL216-390); assay: ThermoFluor binding assay with proMMP9(67-444;ΔFnII); details: pH 7.0
T3 construct: start methionine (N); made in house; host or cells: E. coli BL21(DE3) RIL
T3 sequence (P14780 with tags, fused parts or gaps DEL216-390): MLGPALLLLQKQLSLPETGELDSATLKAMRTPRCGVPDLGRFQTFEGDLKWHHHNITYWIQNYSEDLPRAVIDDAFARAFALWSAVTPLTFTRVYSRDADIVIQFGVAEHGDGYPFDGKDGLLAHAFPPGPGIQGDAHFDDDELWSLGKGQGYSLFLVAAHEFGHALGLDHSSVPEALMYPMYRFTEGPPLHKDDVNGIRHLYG
Method in brief: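 Thermal shift binding with 3.5 μM proMMP9(67-444;ΔFnII) and 50 μM 1,8-ANS in 50 mM HEPES pH 7.0, 100 mM NaCl, 2.5 mM MgCl2, 300 μM CaCl2, 0.001% Tween-20, with serially diluted compound. Heated 40 to 90° C at 1° C/min; fluorescence-derived Tm fitted using DSC/ThermoFluor thermodynamic parameters.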

T1 sequence (P14780 20-707 R574P): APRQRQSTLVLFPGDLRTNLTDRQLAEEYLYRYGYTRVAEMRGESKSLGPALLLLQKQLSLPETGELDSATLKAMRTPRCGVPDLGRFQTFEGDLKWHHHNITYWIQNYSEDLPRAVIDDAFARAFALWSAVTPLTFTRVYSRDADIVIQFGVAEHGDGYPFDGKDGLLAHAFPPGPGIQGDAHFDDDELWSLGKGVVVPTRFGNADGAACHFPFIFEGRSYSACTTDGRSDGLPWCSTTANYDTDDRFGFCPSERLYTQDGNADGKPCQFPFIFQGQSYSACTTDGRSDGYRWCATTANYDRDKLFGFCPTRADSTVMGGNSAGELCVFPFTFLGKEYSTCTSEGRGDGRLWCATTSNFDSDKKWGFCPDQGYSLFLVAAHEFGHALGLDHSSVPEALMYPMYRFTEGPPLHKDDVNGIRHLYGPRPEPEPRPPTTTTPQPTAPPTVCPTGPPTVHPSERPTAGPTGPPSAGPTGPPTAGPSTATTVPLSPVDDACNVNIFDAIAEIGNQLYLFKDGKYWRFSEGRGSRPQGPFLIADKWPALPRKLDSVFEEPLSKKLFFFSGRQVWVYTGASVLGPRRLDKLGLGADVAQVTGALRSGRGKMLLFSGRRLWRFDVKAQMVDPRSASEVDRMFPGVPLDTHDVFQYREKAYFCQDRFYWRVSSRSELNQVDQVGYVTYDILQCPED

Row | Compound | IC50 [1] | Kd [2] | Kd [3] | Kd [4]
1 | Cc1nc(C(=O)N2CCN(c3ccc(C(F)(F)F)cn3)CC2)sc1-c1csc(Nc2cc(C(N)=O)ccc2OC(C)C)n1 [Example 109, 4-Isopropoxy-3-{4′-methyl-2′-[4-(5-trifluoromethyl-pyridin-2-yl)-piperazine-1-carbonyl]-[4,5′]bithiazolyl-2-ylamino}-benzamide.TFA] | 5700 nM | > 95000 nM | 3800 nM | > 95000 nM
2 | Cc1nc(C(=O)N2CCC(N(C)C)CC2)sc1-c1csc(Nc2cc(C(N)=O)ccc2OC(C)C)n1 [Example 110, 3-[2′-(4-Dimethylamino-piperidine-1-carbonyl)-4′-methyl-[4,5]bithiazolyl-2-ylamino]-4-isopropoxy-benzamide.TFA] | 200 nM | 690 nM | 130 nM | 480 nM
3 | Cc1nc(C(=O)NC2CCN(C(C)C)CC2)sc1-c1csc(Nc2cc(C(N)=O)ccc2OC(C)C)n1 [Example 111, 2-(5-Carbamoyl-2-isopropoxy-phenylamino)-4′-methyl-[4,5′]bithiazolyl-2′-carboxylic acid (1-isopropyl-piperidin-4-yl)-amide.TFA] | 81 nM | 360 nM | 86 nM | 290 nM
4 | Cc1nc(C(=O)N2CCCN(C(C)C)CC2)sc1-c1csc(Nc2cc(C(N)=O)ccc2OC(C)C)n1 [Example 112, 4-Isopropoxy-3-[2′-(4-isopropyl-[1,4]diazepane-1-carbonyl)-4′-methyl-[4,5]bithiazolyl-2-ylamino]-benzamide.TFA] | 520 nM | > 57000 nM | 1400 nM | 2200 nM
5 | Cc1nc(C(=O)NC2CCN(C)CC2)sc1-c1csc(Nc2cc(C(N)=O)ccc2OC(C)C)n1 [Example 113, 2-(5-Carbamoyl-2-isopropoxy-phenylamino)-4′-methyl-[4,5′]bithiazolyl-2′-carboxylic acid (1-methyl-piperidin-4-yl)-amide.TFA] | 570 nM | > 57000 nM | 1500 nM | 1900 nM
6 | CCN1CCCN(C(=O)c2nc(C)c(-c3csc(Nc4cc(C(N)=O)ccc4OC(C)C)n3)s2)CC1 [Example 114, 3-[2′-(4-Ethyl-[1,4]diazepane-1-carbonyl)-4′-methyl-[4,5′]bithiazolyl-2-ylamino]-4-isopropoxy-benzamide.TFA] | 310 nM | 1800 nM | 690 nM | 960 nM
7 | CCOc1ccc(C(N)=O)cc1Nc1nc(-c2sc(C(=O)N3CCN(C)CC3)nc2C)cs1 [Example 115, 4-Ethoxy-3-[4′-methyl-2′-(4-methyl-piperazine-1-carbonyl)-[4,5′]bithiazolyl-2-ylamino]-benzamide.TFA] | 880 nM | 6400 nM | 2800 nM | 3800 nM
8 | CCOc1ccc(C(N)=O)cc1Nc1nc(-c2sc(C(=O)N3CCCN(C(C)C)CC3)nc2C)cs1 [Example 116, 4-Ethoxy-3-[2′-(4-isopropyl-[1,4]diazepane-1-carbonyl)-4′-methyl-[4,5]bithiazolyl-2-ylamino]-benzamide.TFA] | 500 nM | 6700 nM | 2700 nM | 1400 nM
9 | CCOc1ccc(C(N)=O)cc1Nc1nc(-c2sc(C(=O)N3CCN(CC)CC3)nc2C)cs1 [Example 117, 4-Ethoxy-3-[2′-(4-ethyl-piperazine-1-carbonyl)-4′-methyl-[4,5]bithiazolyl-2-ylamino]-benzamide.TFA] | 670 nM | 6900 nM | 680 nM | 2000 nM
10 | CCOc1ccc(C(N)=O)cc1Nc1nc(-c2sc(C(=O)N3CCN(C(C)C)CC3)nc2C)cs1 [Example 118, 4-Ethoxy-3-[2′-(4-isopropyl-piperazine-1-carbonyl)-4′-methyl-[4,5]bithiazolyl-2-ylamino]-benzamide.TFA] | 1100 nM | 5500 nM | 640 nM | 1200 nM
11 | CCOc1ccc(C(N)=O)cc1Nc1nc(-c2sc(C(=O)N3CCCN(C)CC3)nc2C)cs1 [Example 119, 4-Ethoxy-3-[4′-methyl-2′-(4-methyl-[1,4]diazepane-1-carbonyl)-[4,5′]bithiazolyl-2-ylamino]-benzamide.TFA] | 520 nM | 6200 nM | 3300 nM | 2200 nM
12 | CCOc1ccc(C(N)=O)cc1Nc1nc(-c2sc(C(=O)N3CCCN(CC)CC3)nc2C)cs1 [Example 120, 4-Ethoxy-3-[2′-(4-ethyl-[1,4]diazepane-1-carbonyl)-4′-methyl-[4,5]bithiazolyl-2-ylamino]-benzamide.TFA] | 480 nM | 5600 nM | 2500 nM | 1600 nM
13 | CCOc1ccc(C(N)=O)cc1Nc1nc(-c2sc(C(=O)NC3CCN(C)CC3)nc2C)cs1 [Example 121, 2-(5-Carbamoyl-2-ethoxy-phenylamino)-4′-methyl-[4,5′]bithiazolyl-2′-carboxylic acid (1-methyl-piperidin-4-yl)-amide.TFA] | 370 nM | 8700 nM | 2400 nM | 1200 nM
14 | CCOc1ccc(C(N)=O)cc1Nc1nc(-c2sc(C(=O)NC3CCN(C(C)C)CC3)nc2C)cs1 [Example 122, 2-(5-Carbamoyl-2-ethoxy-phenylamino)-4′-methyl-[4,5′]bithiazolyl-2′-carboxylic acid (1-isopropyl-piperidin-4-yl)-amide.TFA] | 250 nM | 4900 nM | 830 nM | 670 nM
15 | CCOc1ccc(C(N)=O)cc1Nc1nc(-c2sc(C(=O)N(C)CCN(C)C)nc2C)cs1 [Example 123, 2-(5-Carbamoyl-2-ethoxy-phenylamino)-4′-methyl-[4,5′]bithiazolyl-2′-carboxylic acid (2-dimethylamino-ethyl)-methyl-amide.TFA] | 440 nM | 1800 nM | 280 nM | 1000 nM
16 | Cc1nc(CN2CCOCC2)sc1-c1csc(Nc2cc(C(N)=O)ccc2OC(C)C)n1 [Example 124, 4-Isopropoxy-3-(4′-methyl-2′-morpholin-4-ylmethyl-[4,5′]bithiazolyl-2-ylamino)-benzamide.TFA] | 670 nM | 6100 nM | 650 nM | 3700 nM
17 | Cc1nc(CN2CCN(C(C)C)CC2)sc1-c1csc(Nc2cc(C(N)=O)ccc2OC(C)C)n1 [Example 125, 4-Isopropoxy-3-[2′-(4-isopropyl-piperazin-1-ylmethyl)-4′-methyl-[4,5]bithiazolyl-2-ylamino]-benzamide.TFA] | 780 nM | 4900 nM | 580 nM | 3200 nM
18 | Cc1nc(CN2CCCN(C)CC2)sc1-c1csc(Nc2cc(C(N)=O)ccc2OC(C)C)n1 [Example 126, 4-Isopropoxy-3-[4′-methyl-2′-(4-methyl-[1,4]diazepan-1-ylmethyl)-[4,5′]bithiazolyl-2-ylamino]-benzamide.TFA] | 770 nM | 11000 nM | 1100 nM | 4700 nM
19 | Cc1nc(CN2CCC(O)CC2)sc1-c1csc(Nc2cc(C(N)=O)ccc2OC(C)C)n1 [Example 127, 3-[2′-(4-Hydroxy-piperidin-1-ylmethyl)-4′-methyl-[4,5′]bithiazolyl-2-ylamino]-4-isopropoxy-benzamide.TFA] | 650 nM | 8600 nM | 730 nM | 3500 nM
